Source: BigSolDB 2.1

CC(=O)O[C@H]1CC[C@@]2(C)C(=CC[C@@H]3[C@@H]2CC[C@]2(C)C(C(C)=O)=CC[C@@H]32)C1
Conditions | solubility (mole fraction)
in acetone, 278.55 K | 0.00427
in acetone, 281.35 K | 0.0048
in acetone, 284.75 K | 0.00538
in acetone, 288.65 K | 0.00622
in acetone, 291.75 K | 0.00678
in acetone, 293.95 K | 0.00731
in acetone, 296.75 K | 0.008
in acetone, 299.05 K | 0.00875
in acetone, 301.55 K | 0.00955
in acetone, 304.25 K | 0.0105
in cyclohexane, 291.95 K | 0.00212
in cyclohexane, 300.25 K | 0.00314
in cyclohexane, 302.75 K | 0.00363
in cyclohexane, 305.75 K | 0.00426
in cyclohexane, 309.25 K | 0.0049
in cyclohexane, 312.95 K | 0.00574
in cyclohexane, 315.9 K | 0.00662
in cyclohexane, 320.15 K | 0.00767
in cyclohexane, 322.95 K | 0.00878
in cyclohexane, 327.85 K | 0.0112
in cyclohexane, 332.25 K | 0.0135
in cyclohexane, 336.45 K | 0.0162
in cyclohexane, 340.35 K | 0.019
in ethanol, 285 K | 0.00103
in ethanol, 289.85 K | 0.00128
in ethanol, 292.6 K | 0.00144
in ethanol, 294.95 K | 0.00162
in ethanol, 297.65 K | 0.00185
in ethanol, 300.95 K | 0.0021
in ethanol, 304.55 K | 0.0024
in ethanol, 307.55 K | 0.00277
in ethanol, 310.55 K | 0.00319
in ethanol, 314.15 K | 0.00371
in ethanol, 317.55 K | 0.00432
in ethanol, 321.35 K | 0.00503
in ethanol, 324.55 K | 0.00583
in ethanol, 327.05 K | 0.0065
in methanol, 282.75 K | 0.000402
in methanol, 286.85 K | 0.000491
in methanol, 291.95 K | 0.000632
in methanol, 295.15 K | 0.000779
in methanol, 299.95 K | 0.000965
in methanol, 303.85 K | 0.00112
in methanol, 309.25 K | 0.00142
in methanol, 312.15 K | 0.0016
in methanol, 315.55 K | 0.00185
in methanol, 318.35 K | 0.00215
in methanol, 320.05 K | 0.00231
